Experimental findings from the NIST ThermoML archive (doi:10.1021/je1007235) are described below.

Series [1] can be described thus: wn = mass fraction of the nth substance listed. To be noted: 298.15 K, 101.3 kPa, Liquid.
For series [2] the following is noted: 101.33 kPa, Liquid.

The structures appear in SMILES notation. ± gives the expanded uncertainty stated by the source.

By viscosity is commonly meant the internal friction of a fluid under shear. For the compound `OCCO` [1,2-ethanediol] + CC(=O)[O-].CCCCn1cc[n+](C)c1, in series [1] (w1 = 1), the viscosity is on record as 16.1 ± 2 mPa·s.

`CC(=O)[O-].CCCCn1cc[n+](C)c1` [1-butyl-3-methylimidazolium acetate]: the viscosity in series [2] (298.15 K) turned out to be 383 ± 85 mPa·s; in series [2] (353.15 K), 26 ± 2 mPa·s; in series [2] (373.1 K) it was 15 ± 2 mPa·s; in series [2] (393.15 K), 9 ± 2 mPa·s.

With `CC(=O)[O-].CCCCn1cc[n+](C)c1` [1-butyl-3-methylimidazolium acetate] + CC#N, the viscosity in series [1] (w2 = 0.089) is reported as 148 ± 19 mPa·s; in series [1] (w2 = 0.213), 27 ± 2 mPa·s; in series [1] (w2 = 0.389), 5 ± 2 mPa·s; in series [1] (w2 = 0.593), 2 mPa·s.

As for `CC(=O)[O-].CCCCn1cc[n+](C)c1` [1-butyl-3-methylimidazolium acetate] + CN(C)C=O, the viscosity in series [1] (w2 = 0.062) is given as 231 ± 40 mPa·s; in series [1] (w2 = 0.191), 54 ± 3 mPa·s; in series [1] (w2 = 0.389) it was 11 ± 2 mPa·s; in series [1] (w2 = 0.606), 4 mPa·s.

Regarding `CC(=O)[O-].CCCCn1cc[n+](C)c1` [1-butyl-3-methylimidazolium acetate] + O, the viscosity came to 383 ± 88 mPa·s in series [1] (w2 = 0.029); 341 ± 74 mPa·s in series [1] (w2 = 0.031); 236 ± 41 mPa·s in series [1] (w2 = 0.048); 18 ± 2 mPa·s in series [1] (w2 = 0.512); 5 ± 2 mPa·s in series [1] (w2 = 0.731).

Regarding `CC(=O)[O-].CCCCn1cc[n+](C)c1` [1-butyl-3-methylimidazolium acetate] + OCCO, the viscosity in series [1] (w2 = 0.081) was 291 ± 58 mPa·s; in series [1] (w2 = 0.248), 102 ± 9 mPa·s; in series [1] (w2 = 0.464), 39 ± 2 mPa·s; in series [1] (w2 = 0.678), 26 ± 2 mPa·s.

As to `CCCCn1cc[n+](C)c1.[Cl-]` [1-butyl-3-methylimidazolium chloride], the viscosity is 142 ± 17 mPa·s in series [2] (353.15 K), 68 ± 3 mPa·s in series [2] (373.1 K) and 31 ± 2 mPa·s in series [2] (393.15 K).

In the case of `CCCCn1cc[n+](C)c1.N#CN=C=[N-]` [1-butyl-3-methylimidazolium dicyanamide], the viscosity in series [2] (298.15 K) was found to be 31 ± 2 mPa·s; in series [2] (353.15 K), 11 ± 2 mPa·s; in series [2] (373.1 K), 6 ± 2 mPa·s; in series [2] (393.15 K) it was 4 mPa·s.

Regarding `CC(=O)[O-].CCn1cc[n+](C)c1` [1-ethyl-3-methylimidazolium acetate], the viscosity is 162 ± 21 mPa·s in series [2] (298.15 K), 17 ± 2 mPa·s in series [2] (353.15 K), 9 ± 2 mPa·s in series [2] (373.1 K) and 5 ± 2 mPa·s in series [2] (393.15 K).

Take `CC(=O)[O-].CCn1cc[n+](C)c1` [1-ethyl-3-methylimidazolium acetate] + O: the viscosity in series [1] (w2 = 0.023) is 122 ± 13 mPa·s; in series [1] (w2 = 0.045) it was 81 ± 5 mPa·s; in series [1] (w2 = 0.084) it was 57 ± 3 mPa·s; in series [1] (w2 = 0.192), 32 ± 2 mPa·s; in series [1] (w2 = 0.374), 12 ± 2 mPa·s; in series [1] (w2 = 0.556), 4 mPa·s.

Take `CCn1cc[n+](C)c1.[Cl-]` [1-ethyl-3-methylimidazolium chloride]: the viscosity in series [2] (353.15 K) came to 65 ± 3 mPa·s; in series [2] (373.1 K), 27 ± 2 mPa·s; in series [2] (393.15 K), 13 ± 2 mPa·s.

With `CCCCCCn1cc[n+](C)c1.[Cl-]` [1-hexyl-3-methylimidazolium chloride], the viscosity is recorded as 293 ± 57 mPa·s in series [2] (353.15 K), 87 ± 6 mPa·s in series [2] (373.1 K) and 43 ± 3 mPa·s in series [2] (393.15 K).

On to `CCCCCCCC[n+]1ccn(C)c1.[Cl-]` [1-methyl-3-octylimidazolium chloride], for which the figures for the viscosity in series [2] (353.15 K), in series [2] (373.1 K) and in series [2] (393.15 K) were 375 ± 82 mPa·s, 161 ± 21 mPa·s and 81 ± 5 mPa·s, respectively.

Regarding `CC#N` [acetonitrile] + CC(=O)[O-].CCCCn1cc[n+](C)c1, the viscosity in series [1] (w1 = 1) stood at 0.34 mPa·s.

As for `CN(C)C=O` [dimethylformamide] + CC(=O)[O-].CCCCn1cc[n+](C)c1, the viscosity in series [1] (w1 = 1) is recorded as 0.92 mPa·s.

On to `O` [water] + CC(=O)[O-].CCCCn1cc[n+](C)c1, for which, in series [1] (w1 = 1), the viscosity turned out to be 0.89 mPa·s.

Turning to `O` [water] + CC(=O)[O-].CCn1cc[n+](C)c1, in series [1] (w1 = 1), the viscosity came out at 0.89 mPa·s.
